Assay results as given in patent US9724315B2, “Compounded transdermal pain management” (CMPD Licensing, LLC, priority 2011, dated 2017).
Where a name gives a salt, the structure may show the parent alone. Read-outs that look alike come from different tables or passages of the source.

Settings: for percent permeation of applied dose beyond the stratum corneum: single dose, four drugs in combination; for time of (initial) peak flux after dose application: base composition Lipoderm ActiveMax, four drugs applied in combination; for mean flux of percutaneous absorption: ex vivo human trunk skin
Method: An evaluation of the percutaneous absorption of ketamine HCL, gabapentin, clonidine HCL, and baclofen in both Lipoderm® and Lipoderm® ActiveMax™ into human trunk skin, in vitro, using the Franz skin finite dose model was performed. The study was designed to evaluate the percutaneous absorption harmacokinetics of ketamine HCL, gabapentin, clonidine HCL, and baclofen. Absorption was measured in human cadaver skin, in vitro, using the finite dose technique and Franz diffusion cells.
Ketamine HCL 5% w/w, gabapentin 10% w/w, clonidine HCL 0.2% w/w and baclofen 2% w/w, in Lipoderm® and Lipoderm® ActiveMax, were tested on triplicate sections from three different cadaver skin donors for the percutaneous absorption of ketamine HCL, gabapentin, clonidine HCL, and baclofen over a 48-hour dose period. At pre-selected times after dose application, the dermal receptor solution was removed in its entirety, replaced with fresh receptor solution, and an aliquot saved for subsequent analysis. In addition, the epidermis and dermis were recovered and evaluated for drug content. The samples were analyzed for ketamine HCL, gabapentin, clonidine HCL, and baclofen content by High Performance Liquid Chromatography (HPLC)/MS.
The model uses ex vivo animal, human cadaver, or surgical skin mounted in specially designed diffusion cells that allow the skin to be maintained at a temperature and humidity that match typical in vivo conditions. (See Franz, T. J., Percutaneous Absorption: On the Relevance of In Vitro Data. J. Invest. Dermatol, 1975, 64:190-195.)
A finite dose (e.g., 4-7 mg/cm^2) of formulation may be applied to the outer surface of the skin and drug absorption may be measured by monitoring its rate of appearance in the receptor solution bathing the inner surface of the skin. Data defining total absorption, rate of absorption, as well as skin content may be accurately determined in this model. The method has historic precedent for accurately predicting in vivo percutaneous absorption kinetics. (See Franz T. J., The Cadaver Skin Absorption Mode and the Drug Development Process. Pharmacopeial Forum 34(5): 1349-1356, 2008; see also Franz T. J., Lehman P. A., and Raney S., Use of Excised Human Skin to Assess the Bioequivalence of Topical Products. Skin Pharmacol Physiol 22:276-286, 2009.)
During the evaluation, percutaneous adsorption was measured using the in vitro cadaver skin finite dose technique. Human cadaver trunk skin without obvious signs of skin disease, obtained within approximately 24 to 48 hours of death, was used in this study. The skin was dermatomed, cryopreserved, sealed in a water-impermeable bag and stored at approximately −70° C. until the day of the experiment. Prior to use, the skin was thawed in approximately 37° C. water, then rinsed in water to remove any adherent blood or other material from the surface.
Skin from three donors was cut into multiple smaller sections large enough to fit on an approximately nominal 0.8 cm^2 Franz diffusion cells. The dermal chamber was filled to capacity with a reservoir solution of phosphate-buffered isotonic saline (PBS), pH 7.4±0.1, with 0.1% Oleth-20 and 0.008% Gentamicin, and the epidermal cell (chimney) left open to ambient laboratory conditions. All cells were mounted in a diffusion apparatus in which the dermal bathing solution was stirred magnetically at approximately 600 RPM and the skin surface temperature maintained at 32.0°±1.0° C.
To assure the integrity of each skin section, its permeability to tritiated water was determined before application of the test products. (See Franz T. J. and Lehman P. A., The Use of Water Permeability as a Means of Validation for Skin Integrity in In Vitro Percutaneous Absorption Studies. Abst. J. Invest. Dermatol 1990, 94:525.) Following a brief (0.5-1 hour) equilibrium period, ^3H2O (NEN, Boston, Mass., sp. Act. ˜0.5 μCi/mL) was layered across the top of the skin so that the entire exposed surface was covered (approximately 250 to 500 μL).

[1] = Lipoderm ActiveMax base, four drugs simultaneously, intact
[2] = Lipoderm ActiveMax base, about 1 hour after single application
[3] = Lipoderm ActiveMax base, about 3 hours after single application
[4] = Lipoderm ActiveMax base, about 6 hours after single application
[5] = Lipoderm ActiveMax base, about 10 hours after single application
[6] = Lipoderm ActiveMax base, about 18 hours after single application
[7] = Lipoderm ActiveMax base, about 28 hours after single application
[8] = Lipoderm ActiveMax base, about 40 hours after single application

Structure (SMILES) | penetration of skin from the base composition [1] | percent permeation of applied dose beyond the stratum corneum (Lipoderm ActiveMax base) | percent permeation of applied dose beyond the stratum corneum (Lipoderm base) | time of (initial) peak flux after dose application | mean flux using Lipoderm ActiveMax compared with Lipoderm | minimum mean flux using Lipoderm ActiveMax compared with Lipoderm | penetration of skin from the base composition | mean flux of percutaneous absorption [2] | mean flux of percutaneous absorption [3] | mean flux of percutaneous absorption [4] | mean flux of percutaneous absorption [5] | mean flux of percutaneous absorption [6] | mean flux of percutaneous absorption [7] | mean flux of percutaneous absorption [8] | maximum mean flux (Lipoderm ActiveMax base, single application, 48 hours) | mean flux using Lipoderm ActiveMax compared with Lipoderm (ketamine: most of the 48 hours, from about 2 hours, clonidine: about two to about 40 hours after application) | maximum mean flux using Lipoderm ActiveMax compared with Lipoderm (single application, 48 hours)
NCC(CC(=O)O)c1ccc(Cl)cc1 (stereo not drawn) [baclofen] | penetrate into and through ex vivo human trunk skin | approximately 5.5% | approximately 3.95% | approximately one |  |  |  |  |  |  |  |  |  |  |  |  | 
Clc1cccc(Cl)c1N=C1NCCN1 [clonidine, clonidine HCL] |  |  |  |  | exceed | exceeded | penetrate into and through ex vivo human trunk skin | approximately 0.005 μg/cm^2/hr | approximately 0.007 μg/cm^2/hr | approximately 0.006 μg/cm^2/hr | approximately 0.008 μg/cm^2/hr | approximately 0.008 μg/cm^2/hr | approximately 0.011 μg/cm^2/hr | approximately 0.011 μg/cm^2/hr |  |  | 
NCC1(CC(=O)O)CCCCC1 [gabapentin] | penetrate into and through ex vivo human trunk skin | approximately 2.6% |  | approximately one |  |  |  |  |  |  |  |  |  |  |  |  | 
CNC1(c2ccccc2Cl)CCCCC1=O (stereo not drawn) [ketamine, ketamine HCL] | penetrate into and through ex vivo human trunk skin | approximately 53.4% | approximately 44.8% |  |  |  |  | approximately 0.75 μg/cm^2/hr | approximately 3.0 μg/cm^2/hr | approximately 4.1 μg/cm^2/hr | approximately 4.3 μg/cm^2/hr | approximately 2.4 μg/cm^2/hr | approximately 2.5 μg/cm^2/hr | approximately 1.9 μg/cm^2/hr | approximately 4.3 μg/cm^2/hr | exceed | exceeded
